The test system of one data set is Aβ42. Kind of data set: Screening for γ-secretase-modulating activity in SKNBE2 cells carrying APP 695 wild type: Aβ42 in cell supernatant (Alphalisa). The format is cell-based. The conditions noted are these: Homo sapiens, SKNBE2, SKNBE2 cells carrying APP 695 wild type, overnight incubation. An outline of the steps: (§1)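 SKNBE2 cells expressing wild-type APP695 were incubated overnight at 37° C with test compound at several concentrations. Aβ42 and Aβtotal in supernatant were measured by AlphaLISA sandwich immunoassays. IC50 came from 4-parameter non-linear fits of percent of compound-free control versus log concentration.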

A further data set concerns Aβtotal. Put plainly: Screening for γ-secretase-modulating activity in SKNBE2 cells carrying APP 695 wild type: Aβtotal in cell supernatant (Alphalisa). The format is cell-based. The note with it: Homo sapiens, overnight incubation. An outline of the steps: as §1

The structures appear in SMILES notation. Some results are limits rather than exact numbers.

Take `COc1cc(Nc2nc3n(n2)CCCC3c2cc(C(F)(F)F)ccc2C)ccc1-c1ccnc(C)c1` (stereo not drawn) [Compound 151, 5,6,7,8-tetrahydro-N-[3-methoxy-4-(2-methyl-4-pyridinyl)phenyl]-8-[2-methyl-5-(trifluoromethyl)phenyl]-[1,2,4]triazolo[1,5-a]pyridin-2-amine]: the melting point was 146.8 °C. Also, in the data set with Aβ42, half-maximal inhibition (IC50) required 31 nM. Moreover, the IC50 in the data set with Aβtotal was 7080 nM.
In the case of `COc1cc(Nc2nc3n(n2)CCCC3c2ccccc2C(F)(F)F)ccc1-n1cnc(C)n1` (stereo not drawn) [Compound 15, 5,6,7,8-tetrahydro-N-[3-methoxy-4-(3-methyl-1H-1,2,4-triazol-1-yl)phenyl]-8-[2-(trifluoromethyl)phenyl]-[1,2,4]triazolo[1,5-a]pyridin-2-amine], the melting point amounted to 233.2 °C. For the same compound, the IC50 with Aβ42 came out at 79 nM. Also, the IC50 in the data set on Aβtotal is greater than 10000 nM.
In the same order, the values of `Cc1cc(-c2ccc(Nc3nc4c(-c5ccccc5Cl)cccn4n3)cc2)cc(C)n1` [Compound 26, 8-(2-chlorophenyl)-N-[4-(2,6-dimethyl-4-pyridinyl)phenyl]-[1,2,4]triazolo[1,5-a]pyridin-2-amine] are 228.1 °C, 43 nM and greater than 10000 nM.
The like results for `COc1cc(Nc2nc3n(n2)CCCC3c2c(F)cccc2Cl)ccc1-c1ccnc(C)c1` (stereo not drawn) [Compound 110, 8-(2-chloro-6-fluorophenyl)-5,6,7,8-tetrahydro-N-[3-methoxy-4-(2-methyl-4-pyridinyl)phenyl]-[1,2,4]triazolo[1,5-a]pyridin-2-amine] were, in that order, 174 °C, 50 nM and greater than 10000 nM.
The like results for `COc1cccc(C2CCCn3nc(Nc4ccc(-c5ccnc(C)c5)cc4)nc32)c1` (stereo not drawn) [Compound 103, 5,6,7,8-tetrahydro-8-(3-methoxyphenyl)-N-[4-(2-methyl-4-pyridinyl)phenyl]-[1,2,4]triazolo[1,5-a]pyridin-2-amine] were, in that order, 221.6 °C, 59 nM and greater than 10000 nM.
Turning to `COc1cccc(C2CCCn3nc(Nc4ccc(-c5ccnc(C)c5)c(F)c4)nc32)c1` (stereo not drawn) [Compound 102, N-[3-fluoro-4-(2-methyl-4-pyridinyl)phenyl]-5,6,7,8-tetrahydro-8-(3-methoxyphenyl)-[1,2,4]triazolo[1,5-a]pyridin-2-amine], the melting point was determined as 148.4 °C. In the data set with Aβ42, the IC50 was 29 nM. In the data set on Aβtotal, this compound displayed an IC50 greater than 10000 nM.
In the same order, the values of `COc1cc(Nc2nc3c(-c4cccc(C(F)(F)F)c4)cccn3n2)ccc1-n1cnc(C)c1` [Compound 20, N-[3-methoxy-4-(4-methyl-1H-imidazol-1-yl)phenyl]-8-[3-(trifluoromethyl)phenyl]-[1,2,4]triazolo[1,5-a]pyridin-2-amine] are 175 °C, 5 nM and 5890 nM.
The like results for `COc1cc(Nc2nc3c(-c4ccccc4Cl)cccn3n2)ccc1-c1ccnc(C)c1` [Compound 2, 8-(2-chlorophenyl)-N-[3-methoxy-4-(2-methyl-4-pyridinyl)phenyl]-[1,2,4]triazolo[1,5-a]pyridin-2-amine] were, in that order, 186.7 °C, 7 nM and greater than 10000 nM.

Values taken from patent US9145399B2, “Substituted bicyclic triazole derivatives as gamma secretase modulators” (Janssen Pharmaceuticals, Inc., priority 2010, dated 2015).
